One compound from ChEMBL document CHEMBL2074465, “Nonsteroidal anti-inflammatory drugs efficiently reduce the transport and cytotoxicity of adefovir mediated by the human renal organic anion transporter 1” (J Pharmacol Exp Ther, 2000) can be followed below.

The data set concerns the target T1, Solute carrier family 22 member 6 (Homo sapiens, UniProt Q4U2R8).
T1 sequence (Q4U2R8 whole entry): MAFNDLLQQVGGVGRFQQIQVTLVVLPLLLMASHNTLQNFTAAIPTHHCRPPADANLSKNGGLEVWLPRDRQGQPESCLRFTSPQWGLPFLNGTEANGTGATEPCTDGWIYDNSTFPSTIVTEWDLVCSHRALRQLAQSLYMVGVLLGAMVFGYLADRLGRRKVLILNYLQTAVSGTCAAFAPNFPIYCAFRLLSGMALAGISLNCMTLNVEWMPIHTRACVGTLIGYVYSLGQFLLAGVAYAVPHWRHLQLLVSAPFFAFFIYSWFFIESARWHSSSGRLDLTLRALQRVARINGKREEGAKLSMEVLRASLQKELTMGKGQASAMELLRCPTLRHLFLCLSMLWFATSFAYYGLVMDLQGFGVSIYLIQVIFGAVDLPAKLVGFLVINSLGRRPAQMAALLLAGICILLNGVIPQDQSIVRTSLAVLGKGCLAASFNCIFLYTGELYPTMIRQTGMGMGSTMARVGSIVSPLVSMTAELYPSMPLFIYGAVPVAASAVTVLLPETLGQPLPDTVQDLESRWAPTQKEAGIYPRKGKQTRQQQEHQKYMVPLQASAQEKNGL
The experiment in a line: TP_TRANSPORTER: uptake in OAT1-expressing CHO cells. The settings on record: hamster. In kind it is functional, cell-based.

SMILES strings stand for the structures.

As for `CC(C(=O)O)c1cccc(C(=O)c2ccccc2)c1` (stereo unspecified) [KETOPROFEN], the Activity result is “is not a substrate [-]”.
